Some test systems named below: 786-0 renal; BT-549 breast; CCRF-CEM leukemia; EKVX NSCLC; IGROV1 ovarian; MDA-MB-231 breast; MDA-N; NCI-H23 lung; RPMI-8226 leukemia; SK-MEL-2 melanoma; T-47D breast.
What all share (test): NCI-60 cell line screen, 48 h

Molecules are shown by their SMILES.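 Tested at 5 concentrations; 48 h exposure; 96-well plates; endpoints linearly interpolated, else capped at highest concentration. Definition used: TGI = concentration required for complete inhibition of growth.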

For `Cc1c(O)nc(-n2[nH]c3c(c2=O)CCCC3)[nH]c1=O`, the TGI in the assay with 786-0 renal, with BT-549 breast, in the assay on CCRF-CEM leukemia, in the assay with EKVX NSCLC, with IGROV1 ovarian and with MDA-MB-231 breast was more than 100 µM throughout. In addition, the TGI in the assay on MDA-N, with NCI-H23 lung, in the assay on RPMI-8226 leukemia, in the assay with SK-MEL-2 melanoma and with T-47D breast was more than 100 µM in each case.
Consider `COC(=O)/C=C\C(C#N)(C#N)N=Cc1ccc(C)cc1`, for which the TGI in the assay with 786-0 renal was found to be 3.44 µM; in the assay on BT-549 breast, 11.2 µM; with CCRF-CEM leukemia, 2.1 µM; with EKVX NSCLC, 28.7 µM; in the assay with IGROV1 ovarian it was 26.3 µM; in the assay with MDA-MB-231 breast, 30.1 µM. The TGI with MDA-N is 14 µM; with NCI-H23 lung it was 15.1 µM; in the assay on RPMI-8226 leukemia, 3.52 µM; in the assay with SK-MEL-2 melanoma, 32.1 µM; in the assay on T-47D breast, 4.61 µM.
As to `NCCCN1c2ccccc2Sc2ccc(Cl)cc21`, the TGI in the assay on 786-0 renal was more than 10 µM; in the assay with BT-549 breast, more than 10 µM; with CCRF-CEM leukemia, more than 10 µM; in the assay with EKVX NSCLC it was more than 10 µM; in the assay with IGROV1 ovarian it was more than 10 µM; with MDA-MB-231 breast, more than 8.72 µM. Moreover, the TGI in the assay with MDA-N is more than 5.98 µM; in the assay with NCI-H23 lung it was more than 10 µM; in the assay with RPMI-8226 leukemia it was more than 10 µM; in the assay with SK-MEL-2 melanoma it was more than 10 µM; in the assay with T-47D breast, more than 9.08 µM.
In the case of `CCOS(C)(=O)=O`, the TGI with 786-0 renal, in the assay with BT-549 breast, in the assay on CCRF-CEM leukemia, in the assay on EKVX NSCLC, in the assay on IGROV1 ovarian and in the assay on MDA-MB-231 breast was more than 100 µM throughout. The TGI with MDA-N, in the assay on NCI-H23 lung, with SK-MEL-2 melanoma and in the assay on T-47D breast was more than 100 µM throughout.
`C/C(C[n+]1ccccc1)=N\N=C(N)N`: the TGI with 786-0 renal, in the assay with BT-549 breast, in the assay with CCRF-CEM leukemia, in the assay with EKVX NSCLC, in the assay on IGROV1 ovarian and in the assay on MDA-MB-231 breast was more than 100 µM in each case. Besides, the TGI with MDA-N, in the assay on NCI-H23 lung, with RPMI-8226 leukemia, in the assay on SK-MEL-2 melanoma and with T-47D breast was more than 100 µM throughout.
In the case of `CCCCCCCCCCCC[S+](C)C`, the TGI came out at 13.3 µM with 786-0 renal; 7.68 µM with BT-549 breast; 14.5 µM in the assay on CCRF-CEM leukemia; 20.2 µM with EKVX NSCLC; 6.16 µM with IGROV1 ovarian; 10.1 µM in the assay with MDA-MB-231 breast. Further, the TGI in the assay on MDA-N turned out to be 15.5 µM; in the assay with NCI-H23 lung, 19.7 µM; in the assay on RPMI-8226 leukemia it was 28.4 µM; in the assay with SK-MEL-2 melanoma it was 17.6 µM; in the assay with T-47D breast, 3.37 µM.
`O=C(CCn1ccnc1[N+](=O)[O-])NCCCn1ccnc1[N+](=O)[O-]`: the TGI in the assay with 786-0 renal, in the assay on BT-549 breast, with CCRF-CEM leukemia, in the assay on EKVX NSCLC, in the assay on IGROV1 ovarian and with MDA-MB-231 breast was more than 100 µM throughout. In addition, the TGI in the assay with MDA-N, with NCI-H23 lung, in the assay on RPMI-8226 leukemia, with SK-MEL-2 melanoma and in the assay with T-47D breast was more than 100 µM in each case.
Turning to `Oc1cc(Cl)cc2cccnc12`, the TGI is more than 54.9 µM with 786-0 renal; more than 91.1 µM in the assay on BT-549 breast; 1.95 µM in the assay on CCRF-CEM leukemia; more than 30.1 µM with EKVX NSCLC; 5.12 µM in the assay on IGROV1 ovarian; 39.7 µM with MDA-MB-231 breast. Further, the TGI is more than 100 µM in the assay on MDA-N; 33.4 µM in the assay on NCI-H23 lung; 5.31 µM in the assay with RPMI-8226 leukemia; more than 100 µM in the assay with SK-MEL-2 melanoma; 26.2 µM in the assay with T-47D breast.
For `COc1ccc(C2c3cn[nH]c3CC3CCCCC32)cc1` (centres undefined), the TGI with 786-0 renal turned out to be 33.2 µM; in the assay with BT-549 breast it was 33.5 µM; with CCRF-CEM leukemia it was 53.9 µM; with IGROV1 ovarian it was 26.6 µM; with MDA-MB-231 breast it was 30.4 µM; with MDA-N, 27.9 µM. Moreover, the TGI with NCI-H23 lung was determined as 33.6 µM; with RPMI-8226 leukemia, 73.2 µM; with SK-MEL-2 melanoma, 32.5 µM; in the assay with T-47D breast it was 19 µM.
In the case of `C=C(C(=O)OCC)C(=O)OCC`, the TGI in the assay on 786-0 renal, in the assay on BT-549 breast, in the assay on CCRF-CEM leukemia, in the assay with EKVX NSCLC, with IGROV1 ovarian and in the assay on MDA-MB-231 breast was more than 100 µM each time. The TGI with MDA-N, in the assay with NCI-H23 lung, in the assay with RPMI-8226 leukemia, in the assay on SK-MEL-2 melanoma and with T-47D breast was more than 100 µM each time.
Take `Cc1nc(C)c(C(=O)NNC(=O)C[N+](C)(C)C)cc1C(=O)NNC(=O)C[N+](C)(C)C`: the TGI in the assay on 786-0 renal, in the assay on BT-549 breast, in the assay on EKVX NSCLC, with IGROV1 ovarian, in the assay with MDA-MB-231 breast and with MDA-N was more than 100 µM throughout. The TGI with NCI-H23 lung, in the assay on SK-MEL-2 melanoma and in the assay on T-47D breast was more than 100 µM throughout.
Turning to `CSc1cc(-c2cccs2)sc1-c1cc(SC)c(-c2sc(-c3sc(-c4cccs4)cc3SC)cc2SC)s1`, the TGI in the assay with 786-0 renal, in the assay on BT-549 breast, with CCRF-CEM leukemia, in the assay with EKVX NSCLC, in the assay on IGROV1 ovarian and in the assay with MDA-MB-231 breast was more than 100 µM in each case. Also, the TGI with MDA-N, in the assay with NCI-H23 lung, with RPMI-8226 leukemia, in the assay with SK-MEL-2 melanoma and in the assay on T-47D breast was more than 100 µM in each case.
In the case of `O=C1c2cc(-c3ccccc3)cnc2S(=O)(=O)N1c1ccc(Br)cc1`, the TGI in the assay with 786-0 renal, in the assay with BT-549 breast, in the assay with CCRF-CEM leukemia, with EKVX NSCLC, with IGROV1 ovarian and with MDA-MB-231 breast was more than 100 µM in each case. Further, the TGI with MDA-N is more than 100 µM; in the assay on NCI-H23 lung, more than 100 µM; in the assay with RPMI-8226 leukemia, 82.2 µM; in the assay with SK-MEL-2 melanoma it was more than 100 µM; in the assay on T-47D breast, more than 100 µM.

The values above are taken from PubChem BioAssay (NCI).
